Measurements from ChEMBL document CHEMBL5512604, “Small molecules targeting selected histone methyltransferases (HMTs) for cancer treatment: Current progress and novel strategies” (Eur J Med Chem, 2024).

Legend:
[1] = target: Histone-lysine N-methyltransferase EZH2 (Homo sapiens, UniProt Q15910); assay: Displacement of [3H-SAM] from full-length EZH2 (2 to 746 residues) (unknown origin) using a core histone substrate
[2] = target: von Hippel-Lindau disease tumor suppressor/Histone-lysine N-methyltransferase EZH2 (Homo sapiens, UniProt Q15910+P40337); assay: PROTAC activity at VHL/EZH2 in human MDA-MB-453 cells assessed as protein degradation incubated for 48 hrs by Western blot analysis; assay type: cell-based
MDA-MB-453 = assay: Antiproliferative activity against human MDA-MB-453 cells assessed as inhibition of cell viability incubated for 5 days by CCK8 assay; assay type: functional, cell-based; conditions: MDA-MB-453, 120 h
[3] = target: T1, Histone-lysine N-methyltransferase EZH1 (Homo sapiens, UniProt Q92800); assay: Displacement of [3H-SAM] from full-length EZH1 (2 to 746 residues) (unknown origin) using a core histone substrate
T1 sequence (Q92800 whole entry): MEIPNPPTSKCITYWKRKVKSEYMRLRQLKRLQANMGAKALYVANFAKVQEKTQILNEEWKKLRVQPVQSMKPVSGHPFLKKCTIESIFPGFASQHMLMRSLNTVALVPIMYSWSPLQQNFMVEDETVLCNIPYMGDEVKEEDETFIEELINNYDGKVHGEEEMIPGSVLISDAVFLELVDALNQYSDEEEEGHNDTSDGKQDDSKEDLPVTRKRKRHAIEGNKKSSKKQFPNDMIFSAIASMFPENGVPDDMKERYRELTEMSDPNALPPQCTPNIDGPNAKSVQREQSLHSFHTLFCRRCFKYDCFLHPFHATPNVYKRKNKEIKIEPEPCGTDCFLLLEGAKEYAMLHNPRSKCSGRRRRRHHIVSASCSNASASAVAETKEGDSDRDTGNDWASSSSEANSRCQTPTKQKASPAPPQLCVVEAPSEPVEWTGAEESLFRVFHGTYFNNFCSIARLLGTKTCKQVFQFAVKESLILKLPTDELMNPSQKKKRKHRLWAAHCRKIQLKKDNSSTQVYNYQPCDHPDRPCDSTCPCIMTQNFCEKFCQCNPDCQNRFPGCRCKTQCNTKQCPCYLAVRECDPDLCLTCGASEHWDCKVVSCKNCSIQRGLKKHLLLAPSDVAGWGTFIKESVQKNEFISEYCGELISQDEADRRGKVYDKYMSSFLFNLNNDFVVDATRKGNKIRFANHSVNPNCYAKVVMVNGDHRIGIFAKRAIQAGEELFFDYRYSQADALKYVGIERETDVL

[4] = target: Bromodomain-containing protein 4 (Homo sapiens, UniProt O60885); assay: Induction of BRD4 degradation in human 231MFP cells; assay type: cell-based
SU-DHL-6 [5] = assay: Antiproliferative activity against human SU-DHL-6 cells; assay type: functional, cell-based
[6] = target: Protein arginine N-methyltransferase 5 (Homo sapiens, UniProt O14744); assay: Inhibition of PRMT5 (unknown origin) by HotSpot profiling analysis
SU-DHL-6 [7] = assay: Potency index, ratio of EPZ6438 IC50 to test compound IC50 for antiproliferative activity against human SU-DHL-6 cells; assay type: functional
MDA-MB-231 = assay: Antiproliferative activity against human MDA-MB-231 cells assessed as inhibition of cell growth incubated for 72 hrs; assay type: functional, cell-based; conditions: MDA-MB-231, 72 h
Histone deacetylase [8] = assay: Inhibition of HDAC in human K562 cells using Boc-K(Ac)-AMC as substrate; assay type: cell-based
MCF7 = assay: Antiproliferative activity against human MCF7 cells assessed as inhibition of cell growth incubated for 72 hrs; assay type: functional, cell-based; conditions: MCF7, 72 h
[9] = target: T2, Histone-lysine N-methyltransferase EHMT2 (Homo sapiens, UniProt Q96KQ7); assay: Inhibition of G9a in human MDA-MB-231 cells assessed as decrease in H3K9Me2 level by ICW assay; assay type: cell-based
T2 sequence (Q96KQ7 whole entry): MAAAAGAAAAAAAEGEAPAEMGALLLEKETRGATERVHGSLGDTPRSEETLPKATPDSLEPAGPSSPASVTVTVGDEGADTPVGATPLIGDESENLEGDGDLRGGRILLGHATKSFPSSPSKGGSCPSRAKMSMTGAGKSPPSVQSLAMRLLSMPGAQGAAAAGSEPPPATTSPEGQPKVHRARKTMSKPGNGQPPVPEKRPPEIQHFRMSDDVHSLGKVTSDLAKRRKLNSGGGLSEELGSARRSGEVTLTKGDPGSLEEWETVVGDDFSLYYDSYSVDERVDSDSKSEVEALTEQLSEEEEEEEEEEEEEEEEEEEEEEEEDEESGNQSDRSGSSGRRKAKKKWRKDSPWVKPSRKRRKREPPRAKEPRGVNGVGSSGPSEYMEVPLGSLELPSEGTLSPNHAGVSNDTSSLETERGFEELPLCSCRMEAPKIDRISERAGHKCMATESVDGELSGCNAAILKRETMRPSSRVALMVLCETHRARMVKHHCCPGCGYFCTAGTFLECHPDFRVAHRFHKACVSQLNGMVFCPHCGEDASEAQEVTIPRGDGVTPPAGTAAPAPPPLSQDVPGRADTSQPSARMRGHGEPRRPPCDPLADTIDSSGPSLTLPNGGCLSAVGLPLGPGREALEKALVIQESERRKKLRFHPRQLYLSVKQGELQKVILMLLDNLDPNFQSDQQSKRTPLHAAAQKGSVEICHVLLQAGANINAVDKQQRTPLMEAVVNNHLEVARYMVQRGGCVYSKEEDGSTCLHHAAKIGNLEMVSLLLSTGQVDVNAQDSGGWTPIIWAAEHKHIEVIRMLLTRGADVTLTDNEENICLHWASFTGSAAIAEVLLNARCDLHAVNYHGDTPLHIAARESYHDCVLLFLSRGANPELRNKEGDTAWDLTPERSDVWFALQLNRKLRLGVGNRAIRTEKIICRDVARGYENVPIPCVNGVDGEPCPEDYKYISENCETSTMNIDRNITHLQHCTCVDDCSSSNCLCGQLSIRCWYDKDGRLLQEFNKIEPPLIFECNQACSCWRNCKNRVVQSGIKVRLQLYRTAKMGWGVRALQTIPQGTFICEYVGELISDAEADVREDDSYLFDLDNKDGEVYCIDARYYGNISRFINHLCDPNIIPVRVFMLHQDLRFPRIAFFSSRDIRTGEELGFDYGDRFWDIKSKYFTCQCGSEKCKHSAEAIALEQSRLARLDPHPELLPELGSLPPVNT

Histone deacetylase [10] = assay: Inhibition of HDAC in human HeLa cells using Boc-K(Ac)-AMC as substrate; assay type: cell-based
in vitro = conditions: human, HEK293 cells
A549 = assay: Antiproliferative activity against human A549 cells assessed as inhibition of cell growth incubated for 72 hrs; assay type: functional, cell-based; conditions: A549, 72 h

Sequence of Protein arginine N-methyltransferase 5 (O14744 whole entry): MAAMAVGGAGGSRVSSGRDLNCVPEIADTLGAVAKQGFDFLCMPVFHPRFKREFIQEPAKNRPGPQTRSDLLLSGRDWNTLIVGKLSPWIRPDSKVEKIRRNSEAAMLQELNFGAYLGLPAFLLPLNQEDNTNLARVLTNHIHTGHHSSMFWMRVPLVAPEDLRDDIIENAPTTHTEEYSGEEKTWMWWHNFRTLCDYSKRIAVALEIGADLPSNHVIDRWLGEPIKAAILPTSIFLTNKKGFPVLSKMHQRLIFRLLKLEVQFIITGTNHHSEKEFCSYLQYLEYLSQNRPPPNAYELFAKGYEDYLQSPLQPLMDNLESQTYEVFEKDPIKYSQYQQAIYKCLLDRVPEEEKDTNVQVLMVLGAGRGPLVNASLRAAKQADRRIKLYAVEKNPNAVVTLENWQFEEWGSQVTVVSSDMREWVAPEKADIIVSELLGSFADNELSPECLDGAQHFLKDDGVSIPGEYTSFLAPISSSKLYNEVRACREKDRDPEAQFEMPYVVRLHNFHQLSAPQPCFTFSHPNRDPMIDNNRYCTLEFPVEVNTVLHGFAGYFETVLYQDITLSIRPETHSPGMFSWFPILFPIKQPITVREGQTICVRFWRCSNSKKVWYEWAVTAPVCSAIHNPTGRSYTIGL
Sequence of Histone-lysine N-methyltransferase EZH2 (Q15910 whole entry, the tested form may be a part): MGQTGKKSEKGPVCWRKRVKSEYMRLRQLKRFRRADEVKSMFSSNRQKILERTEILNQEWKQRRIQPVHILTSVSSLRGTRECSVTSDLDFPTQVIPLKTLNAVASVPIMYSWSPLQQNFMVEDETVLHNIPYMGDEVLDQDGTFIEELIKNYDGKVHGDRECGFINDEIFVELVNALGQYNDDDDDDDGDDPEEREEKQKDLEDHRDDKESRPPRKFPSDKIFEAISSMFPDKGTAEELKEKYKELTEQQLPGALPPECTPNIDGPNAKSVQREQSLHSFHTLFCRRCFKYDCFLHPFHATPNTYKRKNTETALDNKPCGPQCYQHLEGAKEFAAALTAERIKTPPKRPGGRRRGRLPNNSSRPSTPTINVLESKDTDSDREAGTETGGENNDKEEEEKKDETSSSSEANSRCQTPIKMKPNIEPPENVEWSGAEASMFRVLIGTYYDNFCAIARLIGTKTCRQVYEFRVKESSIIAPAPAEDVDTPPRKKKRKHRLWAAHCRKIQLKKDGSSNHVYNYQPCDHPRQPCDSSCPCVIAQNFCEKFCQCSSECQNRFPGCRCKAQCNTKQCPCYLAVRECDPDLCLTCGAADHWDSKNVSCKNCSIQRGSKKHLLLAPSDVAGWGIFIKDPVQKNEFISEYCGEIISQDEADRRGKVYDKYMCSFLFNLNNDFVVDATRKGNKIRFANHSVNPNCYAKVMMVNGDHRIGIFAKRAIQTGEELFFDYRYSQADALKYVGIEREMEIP
Sequence of von Hippel-Lindau disease tumor suppressor/Histone-lysine N-methyltransferase EZH2 (Q15910 whole entry): as the sequence (Q15910 whole entry, the tested form may be a part) above
Sequence of von Hippel-Lindau disease tumor suppressor/Histone-lysine N-methyltransferase EZH2 (P40337 whole entry): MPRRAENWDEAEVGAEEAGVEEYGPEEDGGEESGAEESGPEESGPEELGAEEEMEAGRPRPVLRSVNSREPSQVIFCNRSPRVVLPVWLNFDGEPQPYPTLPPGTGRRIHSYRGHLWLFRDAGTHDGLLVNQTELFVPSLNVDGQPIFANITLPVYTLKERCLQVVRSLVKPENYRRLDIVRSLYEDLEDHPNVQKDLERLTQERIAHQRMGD

Work on `CCN(c1cc(-c2ccc(CN3CCN(C(=O)CCCCCCCC(=O)N[C@H](C(=O)N4C[C@H](O)C[C@H]4C(=O)NCc4ccc(-c5scnc5C)cc4)C(C)(C)C)CC3)cc2)cc(C(=O)NCc2c(C)cc(C)[nH]c2=O)c1C)C1CCOCC1` yielded an IC50 [1] of 62 nM, a DC50 [2] of 140 nM and an IC50 (MDA-MB-453) of 2300 nM. The IC50 [3] was 8.6 nM.
For `Cc1sc2c(c1C)C(c1ccc(Cl)cc1)=N[C@H](CC(=O)NCCCCOc1ccc(C3CC(c4ccc(Br)cc4)=NN3C(=O)CCl)cc1)c1nnc(C)n1-2` (stereo partly specified), the DC50 [4] was 14 µM.
`CCN(c1cc(-c2ccc(CN3CCOCC3)cc2)cc(C(=O)NCc2c(C)cc(C)[nH]c2=O)c1C)C1CCOCC1` [TAZEMETOSTAT] gave an IC50 (SU-DHL-6 [5]) of 21.9 µM.
With `N=C(N)NCCC[C@H](N)C(=O)NCC(=O)N[C@@H](CCCN)C(=O)N[C@H](CCCNC(=N)NCCCSC[C@H]1O[C@@H](n2cnc3c(N)ncnc32)[C@H](O)[C@@H]1O)C(N)=O` the IC50 [6] was 0.42 nM.
With `CCN(c1cc(-c2ccc(CN3CCN(C(=O)c4cnn(CCOCCOCCOCCNC(=O)CN5CCN(C(=O)N6C(c7ccc(OC)cc7OC(C)C)=N[C@H](c7ccc(Cl)cc7)[C@@H]6c6ccc(Cl)cc6)CC5=O)n4)CC3)cc2)cc(C(=O)NCc2c(C)cc(C)[nH]c2=O)c1C)C1CCOCC1` the IC50 (SU-DHL-6 [5]) was 3.75 µM and the “Ratio IC50” value (SU-DHL-6 [7]) was 6.
Work on `COc1cc2nc(NCCNC(=O)CCCCC(=O)NO)nc(NC3CCN(Cc4ccccc4)CC3)c2cc1OC` yielded an IC50 (MDA-MB-231) of 10 µM, an IC50 (Histone deacetylase [8]) of 5.73 µM and an IC50 (MCF7) of 10 µM. For the same molecule, the IC50 [9] was 7.14 µM, the IC50 (Histone deacetylase [10]) was 13.8 µM and the IC50 at 72 h (in vitro) was 19.9 µM. The IC50 (A549) was 10 µM.
